Measurements: ChEMBL document CHEMBL3885861, “Open TG-GATES”

Species on record: Rattus norvegicus
Test: Open TG-GATES - Regimen: Single
Assay type: toxicity, organism-based, Sprague-Dawley
Parameters: regimen Single, gender Male, age 6 weeks
Conditions: in vivo, po, 30 mg/kg, route gavage, dose level Low; for APTT / Bas / Eos / Fbg / Hb / Ht / Lym / MCH / MCHC / MCV / Mono / Neu / PT / Plat / RBC / Ret / WBC: tissue Blood; for ALP / ALT / AST / BUN / CRE / DBIL / GLC / IP / K / Na / PL / RALB / TBIL / TC / TG / TP / gamma-GTP: tissue Plasma

## NS(=O)(=O)c1cc(C(=O)O)c(NCc2ccco2)cc1Cl [FUROSEMIDE]
3 h
  TERMINAL_BW: 201.3 g
  APTT: 18.1 s
  Bas: 0%
  Eos: 1%
  Fbg: 278.8 mg/dL
  Hb: 14 g/dL
  Ht: 41.6%
  Lym: 74.2%
  MCH: 21.2 pg
  MCHC: 33.6%
  MCV: 63.2 fL
  Mono: 4.4%
  Neu: 19.6%
  PT: 15.4 s
  Plat: 117.4 x10_4/uL
  RBC: 658.6 x10_4/ul
  Ret: 7.9%
  WBC: 68.2 x10_2/uL
  ALP: 1468.8 IU/L
  ALT: 46 IU/L
  AST: 77 IU/L
  BUN: 15.4 mg/dL
  CRE: 0.2 mg/dL
  DBIL: 0.01 mg/dL
  GLC: 179.2 mg/dL
  IP: 10.5 mg/dL
  K: 3.7 meq/L
  Na: 141.6 meq/L
  PL: 149.8 mg/dL
  RALB: 2.8 g/dL
  TBIL: 0.058 mg/dL
  TC: 79.4 mg/dL
  TG: 63.6 mg/dL
  TP: 5.9 g/dL
  gamma-GTP: 1 IU/L
6 h
  TERMINAL_BW: 199.3 g
  APTT: 17.5 s
  Bas: 0%
  Eos: 1%
  Fbg: 324.6 mg/dL
  Hb: 14.1 g/dL
  Ht: 41.9%
  Lym: 74.4%
  MCH: 21.6 pg
  MCHC: 33.7%
  MCV: 64 fL
  Mono: 3.8%
  Neu: 20%
  PT: 15.2 s
  Plat: 124.8 x10_4/uL
  RBC: 655.4 x10_4/ul
  Ret: 7.9%
  WBC: 92.3 x10_2/uL
  ALP: 1320.8 IU/L
  ALT: 45.6 IU/L
  AST: 74.6 IU/L
  BUN: 17.8 mg/dL
  CRE: 0.2 mg/dL
  DBIL: 0.016 mg/dL
  GLC: 181.2 mg/dL
  IP: 10.4 mg/dL
  K: 3.6 meq/L
  Na: 141 meq/L
  PL: 156.2 mg/dL
  RALB: 2.9 g/dL
  TBIL: 0.074 mg/dL
  TC: 88.2 mg/dL
  TG: 44.2 mg/dL
  TP: 6.1 g/dL
  gamma-GTP: 1 IU/L
9 h
  TERMINAL_BW: 199.5 g
  APTT: 17.3 s
  Bas: 0%
  Eos: 1%
  Fbg: 310.2 mg/dL
  Hb: 14 g/dL
  Ht: 41.4%
  Lym: 73%
  MCH: 21.5 pg
  MCHC: 33.8%
  MCV: 63.8 fL
  Mono: 3.2%
  Neu: 22%
  PT: 15.4 s
  Plat: 118.1 x10_4/uL
  RBC: 649.2 x10_4/ul
  Ret: 8.1%
  WBC: 89.5 x10_2/uL
  ALP: 1152.2 IU/L
  ALT: 38.6 IU/L
  AST: 68.6 IU/L
  BUN: 16.4 mg/dL
  CRE: 0.2 mg/dL
  DBIL: 0.01 mg/dL
  GLC: 181.4 mg/dL
  IP: 10.7 mg/dL
  K: 3.7 meq/L
  Na: 143 meq/L
  PL: 147.4 mg/dL
  RALB: 2.7 g/dL
  TBIL: 0.072 mg/dL
  TC: 81 mg/dL
  TG: 38 mg/dL
  TP: 5.8 g/dL
  gamma-GTP: 0.8 IU/L
24 h
  TERMINAL_BW: 224.4 g
  APTT: 17.3 s
  Bas: 0.2%
  Eos: 1%
  Fbg: 267 mg/dL
  Hb: 13.3 g/dL
  Ht: 39.7%
  Lym: 78.6%
  MCH: 21.8 pg
  MCHC: 33.5%
  MCV: 65.1 fL
  Mono: 2.8%
  Neu: 16.4%
  PT: 15.8 s
  Plat: 118.7 x10_4/uL
  RBC: 610 x10_4/ul
  Ret: 7.4%
  WBC: 96 x10_2/uL
  ALP: 1538.8 IU/L
  ALT: 44.6 IU/L
  AST: 73.6 IU/L
  BUN: 16 mg/dL
  CRE: 0.2 mg/dL
  DBIL: 0.01 mg/dL
  GLC: 183.4 mg/dL
  IP: 7.7 mg/dL
  K: 4 meq/L
  Na: 142.6 meq/L
  PL: 147.8 mg/dL
  RALB: 2.6 g/dL
  TBIL: 0.052 mg/dL
  TC: 81.8 mg/dL
  TG: 60.8 mg/dL
  TP: 5.6 g/dL
  gamma-GTP: 0.8 IU/L
